Measurements: patent US12629374B2, “Antimalarial agents” (Merck Sharp & Dohme LLC, priority 2020, dated 2026)
pEC50: −log10 of the molar value. Where a name gives a salt, the structure may show the parent alone. Read-outs that look alike come from different tables or passages of the source.

Tested on: ring stage parasites
Test: Parasite growth potency assay, 72 hours, LDH readout
Type: cell-based
Conditions: parasite growth measured by LDH assay after 72 hours at 37° C., 0.7% rings, 2% haematocrit, read-out: EC50
Method: The parasite stock was maintained at 4% haematocrit in RPMI-Hepes media buffered with sodium bicarbonate and supplemented with 5% heat inactivated human serum and 0.5% albumax.
On the day of assay set up, a blood smear of the parasite culture was Giemsa stained and counted. The parasitemia was adjusted to 0.7% rings and the haematocrit was diluted to 2% in RPMI-Hepes media buffered with sodium bicarbonate and supplemented with 5% heat inactivated human serum and 0.5% albumax. 30 ul of diluted parasites are then added into 10 ul of media+compound in pre-prepared Greiner TC assay plates. Parasite assay plates were placed in gassed humidified boxes in single layer and allowed to incubate at 37° C. for 72 hours. After 72 hours growth, assay plates are sealed with parafilm and frozen flat, in single file at −80° C. overnight. On the following day, assay plates are allowed to thaw at room temperature for 4 hours to which an LDH assay is performed to measure parasite growth.

Structure (SMILES) | pEC50 | also measured
CCC1(CC)CC(=O)N(Cc2cccc(C(=O)NC3CC(C)(C)Oc4ccccc43)c2)C(=N)N1 (single isomer, unassigned) [Example 51A, [1-[[3-[(2,2-dimethylchroman-4-yl)carbamoyl]phenyl]methyl]-4,4-diethyl-6-oxo-hexahydropyrimidin-2-ylidene]ammonium; 2,2,2-trifluoroacetate] | – | pEC50 (trifluoroacetate): 7.04
CCC1(CC)CC(=O)N(Cc2cccc(C(=O)NC3CC(C)(C)Oc4ccccc43)c2)C(=N)N1 (single isomer, unassigned) [Example 51B, [1-[[3-[(2,2-dimethylchroman-4-yl)carbamoyl]phenyl]methyl]-4,4-diethyl-6-oxo-hexahydropyrimidin-2-ylidene]ammonium; 2,2,2-trifluoroacetate] | – | pEC50 (trifluoroacetate): 9.30
CCC1(CC)CC(=O)N([C@H](c2cccc(C(=O)N[C@H]3CCOc4ccccc43)c2)c2cncs2)C(=N)N1 (single isomer, unassigned) [Example 85B, trifluoroacetate] | – | pEC50 (72 h): 8.68
CCC1(CC)CC(=O)N(C(c2cncnc2)c2cccc(C(=O)NC3CC(C)(C)Oc4ccccc43)c2)C(=N)N1 (single isomer, unassigned) [Example 92A, 3-[(4,4-diethyl-2-imino-6-oxo-hexahydropyrimidin-1-yl)-pyrimidin-5-yl-methyl]-N-(2,2-dimethylchroman-4-yl)benzamide] | 7.59 | –
CCC1(CC)CC(=O)N(C(c2cncnc2)c2cccc(C(=O)NC3CC(C)(C)Oc4ccccc43)c2)C(=N)N1 (single isomer, unassigned) [Example 92C, 3-[(4,4-diethyl-2-imino-6-oxo-hexahydropyrimidin-1-yl)-pyrimidin-5-yl-methyl]-N-(2,2-dimethylchroman-4-yl)benzamide] | 8.55 | –
CCC1(CC)CC(=O)N([C@@H](COCCOC)c2cccc(C(=O)N[C@H]3CC(C)(C)Oc4ccccc43)c2)C(=N)N1 (single isomer, unassigned) [Example 112B, trifluoroacetate] | – | pEC50 (72 h): 7.22
CCC12CCCCCCC3COc4ccccc4C3NC(=O)c3cccc(c3)CN(C(=N)N1)C(=O)C2 (single isomer, unassigned) [Example 120A, (26-ethyl-8,29-dioxo-17-oxa-1,9,27-triazapentacyclo[24.2.2.13,7.010,19. 011,16]hentriaconta-3,5,7(31),11(16),12,14-hexaen-28-ylidene)ammonium; 2,2,2-trifluoroacetate] | 7.15 | –
CCC12CCCCCCC3COc4ccccc4C3NC(=O)c3cccc(c3)CN(C(=N)N1)C(=O)C2 (single isomer, unassigned) [Example 120B, (26-ethyl-8,29-dioxo-17-oxa-1,9,27-triazapentacyclo[24.2.2.13,7.010,19. 011,16]hentriaconta-3,5,7(31),11(16),12,14-hexaen-28-ylidene)ammonium; 2,2,2-trifluoroacetate] | 7.45 | –
CCC12CCCCCCC3COc4ccccc4C3NC(=O)c3cccc(c3)CN(C(=N)N1)C(=O)C2 (single isomer, unassigned) [Example 120C, (26-ethyl-8,29-dioxo-17-oxa-1,9,27-triazapentacyclo[24.2.2.13,7.010,19. 011,16]hentriaconta-3,5,7(31),11(16),12,14-hexaen-28-ylidene)ammonium; 2,2,2-trifluoroacetate] | 7.66 | –
CCC12CCCCCCC3COc4ccccc4C3NC(=O)c3cccc(c3)CN(C(=N)N1)C(=O)C2 (single isomer, unassigned) [Example 120D, (26-ethyl-8,29-dioxo-17-oxa-1,9,27-triazapentacyclo[24.2.2.13,7.010,19. 011,16]hentriaconta-3,5,7(31),11(16),12,14-hexaen-28-ylidene)ammonium; 2,2,2-trifluoroacetate] | 7.56 | –
CCC[C@H](c1cccc(C(=O)N[C@H]2c3ccccc3CC2(C)O)c1)N1C(=N)NC(CC)(CC)CC1=O (single isomer, unassigned) [Example 122B] | 7.75 | –
CCC[C@H](c1cccc(C(=O)N[C@H]2c3ccccc3CC2(C)O)c1)N1C(=N)NC(CC)(CC)CC1=O (single isomer, unassigned) [Example 122C] | 7.24 | –
CCC1(CC)CC(=O)N(Cc2cccc(C(=O)N[C@@H]3c4ccccc4OCC3O)c2)C(=N)N1 (single isomer, unassigned) [Example 126A, 3-[(4,4-diethyl-2-imino-6-oxo-hexahydropyrimidin-1-yl)methyl]-N-(3-hydroxychroman-4-yl)benzamide] | – | pEC50 (72 h): 7.71
CCC[C@H](c1cccc(C(=O)N[C@@H]2c3ccccc3OCC2O)c1)N1C(=N)NC(CC)(CC)CC1=O (single isomer, unassigned) [Example 127B] | – | pEC50 (72 h): 8.92
CCC1(CC)CC(=O)N([C@H](CCOC)c2cccc(C(=O)NC3c4ccccc4CC3(C)O)c2)C(=N)N1 (single isomer, unassigned) [Example 142B, 3-[1-(4,4-diethyl-2-imino-6-oxo-hexahydropyrimidin-1-yl)-3-methoxy-propyl]-N-(2-hydroxy-2-methyl-indan-1-yl)benzamide] | – | pEC50 (72 h): 8.85
CCC1(CC)CC(=O)N([C@H](CCOC)c2cc(F)cc(C(=O)N[C@H]3c4ccccc4CC3(C)O)c2)C(=N)N1 (single isomer, unassigned) [Example 144A, 3-[1-(4,4-diethyl-2-imino-6-oxo-hexahydropyrimidin-1-yl)-3-methoxy-propyl]-5-fluoro-N-(2-hydroxy-2-methyl-indan-1-yl)benzamide] | – | pEC50 (72 h): 7.09
CCC1(CC)CC(=O)N([C@H](CCOC)c2cc(F)cc(C(=O)N[C@H]3c4ccccc4CC3(C)O)c2)C(=N)N1 (single isomer, unassigned) [Example 144C, 3-[1-(4,4-diethyl-2-imino-6-oxo-hexahydropyrimidin-1-yl)-3-methoxy-propyl]-5-fluoro-N-(2-hydroxy-2-methyl-indan-1-yl)benzamide] | 7.00 | –

Structure (SMILES) | pEC50 | also measured
CCC1(CC)CC(=O)N([C@H](CCOC)c2cc(F)cc(C(=O)NC3c4ccccc4OC3(C)COC)c2)C(=N)N1 (single isomer, unassigned) [Example 176A, trifluoroacetate] | – | pEC50 (trifluoroacetate): 7.66
CCC1(CC)CC(=O)N([C@H](CCOC)c2cc(F)cc(C(=O)NC3c4ccccc4OC3(C)COC)c2)C(=N)N1 (single isomer, unassigned) [Example 176C, trifluoroacetate] | – | pEC50 (trifluoroacetate): 7.00
CCC1(CC)CC(=O)N([C@H](CCOC)c2cccc(C(=O)N[C@@H]3c4ccccc4OC3(C)CO)c2)C(=N)N1 (single isomer, unassigned) [Example 180A, trifluoroacetate] | – | pEC50 (trifluoroacetate): 8.82
CCC1(CC)CC(=O)N([C@H](CCOC)c2cccc(C(=O)N[C@@H]3c4ccccc4OC3(C)CO)c2)C(=N)N1 (single isomer, unassigned) [Example 180B, trifluoroacetate] | – | pEC50 (trifluoroacetate): 7.82
CCC1(CC)CC(=O)N([C@H](CCOC)c2cccc(C(=O)N[C@@H]3c4ccccc4CC3(O)C(F)(F)F)c2)C(=N)N1 (single isomer, unassigned) [Example 204A] | 7.68 | –
CCC1(CC)CC(=O)N([C@H](CCOC)c2cccc(C(=O)N[C@@H]3c4ccccc4CC3(O)C(F)(F)F)c2)C(=N)N1 (single isomer, unassigned) [Example 204B] | 8.07 | –
CC[C@]1(C)CC(=O)N([C@H](CCOC)c2cccc(C(=O)NC3c4ccccc4OC(C)(C)C3(C)O)c2)C(=N)N1 (single isomer, unassigned) [Example 234A] | 9.37 | –
CC[C@]1(C)CC(=O)N([C@H](CCOC)c2cccc(C(=O)NC3c4ccccc4OC(C)(C)C3(C)O)c2)C(=N)N1 (single isomer, unassigned) [Example 234B] | 7.13 | –
CCC1(CC)CC(=O)N(C(CC(O)C(F)(F)F)c2cccc(C(=O)N[C@@H]3c4ccccc4C[C@H]3O)c2)C(=N)N1 (single isomer, unassigned) [Example 236A] | 7.26 | –
CCC1(CC)CC(=O)N(C(CC(O)C(F)(F)F)c2cccc(C(=O)N[C@@H]3c4ccccc4C[C@H]3O)c2)C(=N)N1 (single isomer, unassigned) [Example 236B] | 9.02 | –
CCC1(CC)CC(=O)N(C(CC(O)C(F)(F)F)c2cccc(C(=O)N[C@@H]3c4ccccc4C[C@H]3O)c2)C(=N)N1 (single isomer, unassigned) [Example 236C] | 8.64 | –
CC[C@]1(C)CC(=O)N([C@H](CCOC)c2cccc(C(=O)NC3c4cc(F)ccc4OC(C)(C)C3(C)O)c2)C(=N)N1 (single isomer, unassigned) [Example 237A] | 7.26 | –
CC[C@]1(C)CC(=O)N([C@H](CCOC)c2cccc(C(=O)NC3c4cc(F)ccc4OC(C)(C)C3(C)O)c2)C(=N)N1 (single isomer, unassigned) [Example 237B] | 9.72 | –
CCC1(CC)CC(=O)N(C(CC(OC)C(F)(F)F)c2cccc(C(=O)N[C@@H]3c4ccccc4C[C@H]3O)c2)C(=N)N1 (single isomer, unassigned) [Example 238A] | 8.71 | –
CCC1(CC)CC(=O)N(C(CC(OC)C(F)(F)F)c2cccc(C(=O)N[C@@H]3c4ccccc4C[C@H]3O)c2)C(=N)N1 (single isomer, unassigned) [Example 238B] | 7.17 | –
CCC1(CC)CC(=O)N(C(CC(OC)C(F)(F)F)c2cccc(C(=O)N[C@@H]3c4ccccc4C[C@H]3O)c2)C(=N)N1 (single isomer, unassigned) [Example 238C] | 8.63 | –
CCC1(CC)CC(=O)N(C(CC(OC)C(F)(F)F)c2cccc(C(=O)N[C@@H]3c4ccccc4C[C@H]3O)c2)C(=N)N1 (single isomer, unassigned) [Example 238D] | 8.65 | –
